ChEMBL document CHEMBL1201862, “PubChem BioAssay data set” (2004)
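Each compound was tested at five concentrations against cells in 96-well plates for 48 hours. Here, GI50 denotes the concentration required for 50% inhibition of growth.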 Activity calls are given as the source filed them. Rule as the data show it: active = GI50 up to about 1.1 µM and inactive = higher.

How the values were obtained:
Experiment in all cases: growth of human tumour cells (NCI), 48 h
Malme-3M = tested on: Malme-3M
K562 = tested on: K562
A549 = tested on: A549
OVCAR-8 = tested on: OVCAR-8
HOP-18 = tested on: HOP-18
786-0 = tested on: 786-0
SW-620 = tested on: SW-620
UACC-62 = tested on: UACC-62
KM12 = tested on: KM12
SK-MEL-5 = tested on: SK-MEL-5
A498 = tested on: A498
TK-10 = tested on: TK-10
DLD-1 = tested on: DLD-1
LXFL 529 = tested on: LXFL 529
SK-MEL-28 = tested on: SK-MEL-28
HCT-15 = tested on: HCT-15

Row | SMILES | GI50 (Malme-3M) | GI50 (K562) | GI50 (A549) | GI50 (OVCAR-8) | GI50 (HOP-18) | GI50 (786-0) | GI50 (SW-620) | GI50 (UACC-62) | GI50 (KM12) | GI50 (SK-MEL-5) | GI50 (A498) | GI50 (TK-10) | GI50 (DLD-1) | GI50 (LXFL 529) | GI50 (SK-MEL-28) | GI50 (HCT-15) [µM]
1 | CCN(CC)CCCC(C)Nc1ccnc2ccc3nn(C)nc3c12 (stereo not given) | 50.6 µM (inactive) | 23.4 µM (inactive) | 47.9 µM (inactive) | 41.4 µM (inactive) | > 100 µM (inactive) | 37.3 µM (inactive) | 22.3 µM (inactive) | > 100 µM (inactive) | 42.3 µM (inactive) | > 100 µM (inactive) | 37 µM (inactive) | > 100 µM (inactive) | 55 µM (inactive) | 55.5 µM (inactive) | – | –
2 | COC(=O)C12C(=O)O[C@H](C)C1(O)C(C)C(=O)N2C (stereo not given in full) | > 100 µM (inactive) | > 100 µM (inactive) | – | > 100 µM (inactive) | > 100 µM (inactive) | > 100 µM (inactive) | – | > 100 µM (inactive) | > 100 µM (inactive) | > 100 µM (inactive) | – | > 100 µM (inactive) | > 100 µM (inactive) | – | > 100 µM (inactive) | > 100
3 | Cc1cc2c(cc1C)[n+]([O-])c(C(=O)CC(=O)C(=O)Nc1c(C(C)C)cccc1C(C)C)c(C)[n+]2[O-] | > 100 µM (inactive) | > 100 µM (inactive) | > 100 µM (inactive) | > 100 µM (inactive) | > 100 µM (inactive) | > 100 µM (inactive) | > 100 µM (inactive) | > 100 µM (inactive) | > 100 µM (inactive) | > 100 µM (inactive) | > 100 µM (inactive) | > 100 µM (inactive) | – | > 100 µM (inactive) | > 100 µM (inactive) | > 100
4 | CC1=C(C(=O)CC(=O)C(=O)Nc2ccccc2)Sc2ccccc2N1 | > 100 µM (inactive) | > 100 µM (inactive) | > 100 µM (inactive) | > 100 µM (inactive) | 78.3 µM (inactive) | > 100 µM (inactive) | > 100 µM (inactive) | > 100 µM (inactive) | > 100 µM (inactive) | > 100 µM (inactive) | > 100 µM (inactive) | – | > 100 µM (inactive) | > 100 µM (inactive) | > 100 µM (inactive) | > 100
5 | OC12c3ccccc3C1CCCCC2N1CCCC1 (stereo not given) | > 100 µM (inactive) | > 10 µM (inactive) | > 100 µM (inactive) | > 100 µM (inactive) | > 100 µM (inactive) | > 100 µM (inactive) | > 100 µM (inactive) | > 100 µM (inactive) | > 100 µM (inactive) | > 100 µM (inactive) | – | > 100 µM (inactive) | – | > 100 µM (inactive) | > 100 µM (inactive) | > 100
6 | OCC(O)C(O)C(O)c1nn(-c2ccccc2)c2nc3cc(Cl)c(Cl)cc3nc12 (stereo not given) | 19.3 µM (inactive) | 18.6 µM (inactive) | 26.7 µM (inactive) | 70.8 µM (inactive) | 67.5 µM (inactive) | 32 µM (inactive) | 88.9 µM (inactive) | 28.8 µM (inactive) | > 10 µM (inactive) | – | – | 36.1 µM (inactive) | 30.1 µM (inactive) | 57.5 µM (inactive) | 48 µM (inactive) | –
7 | CP1(=O)CCCCC1 | > 100 µM (inactive) | > 100 µM (inactive) | > 100 µM (inactive) | > 100 µM (inactive) | > 100 µM (inactive) | > 100 µM (inactive) | > 100 µM (inactive) | > 100 µM (inactive) | > 100 µM (inactive) | > 100 µM (inactive) | – | > 100 µM (inactive) | > 100 µM (inactive) | > 100 µM (inactive) | > 100 µM (inactive) | > 100
8 | Clc1ccc(CCN2CCOCC2)c(Cl)c1 | > 100 µM (inactive) | > 100 µM (inactive) | > 100 µM (inactive) | > 100 µM (inactive) | > 100 µM (inactive) | > 100 µM (inactive) | – | 92.5 µM (inactive) | > 100 µM (inactive) | > 100 µM (inactive) | > 100 µM (inactive) | – | > 100 µM (inactive) | – | > 100 µM (inactive) | > 100
9 | Cc1cc(N(CCC#N)CCC#N)ccc1/C=C(/NC(=O)/C=C/c1ccccc1)C(N)=O | > 100 µM (inactive) | 62.1 µM (inactive) | > 100 µM (inactive) | > 100 µM (inactive) | – | > 100 µM (inactive) | > 100 µM (inactive) | > 100 µM (inactive) | > 100 µM (inactive) | > 100 µM (inactive) | > 100 µM (inactive) | > 100 µM (inactive) | > 100 µM (inactive) | > 100 µM (inactive) | > 100 µM (inactive) | > 100
10 | Cc1nc2ccccc2c(=O)n1/N=C(\N=N\c1ccc(Cl)cc1)c1ccc(N(C)C)cc1 | – | 36.6 µM (inactive) | > 100 µM (inactive) | > 100 µM (inactive) | 46 µM (inactive) | > 100 µM (inactive) | > 100 µM (inactive) | 70.3 µM (inactive) | – | 54.6 µM (inactive) | > 100 µM (inactive) | > 100 µM (inactive) | 71.4 µM (inactive) | 47.8 µM (inactive) | 26.2 µM (inactive) | > 100
